For five compounds, EC50 results are on record in patent US20160362416A1, “ANTIVIRAL COMPOUNDS” (Gilead Sciences, Inc., priority 2012, published 2016).

Test [1] has as its system stable HCV 2a JFH-1 Rluc replicon cells (L31 present in NS5A). Briefly: HCV genotype 2a JFH-1 RLuc replicon reporter assay. The format is cell-based. To be noted: Hepatitis C virus, 72 h, read-out: 2a JFH (nM). As for the experimental part: (§1) Evaluation of cell-based anti-HCV activity: Antiviral potency (EC50) was determined using a Renilla luciferase (RLuc)-based HCV replicon reporter assay. To perform the assay for genotype 1 and 2a JFH-1, stable HCV 1a RLuc replicon cells (harboring a dicistronic genotype 1a H77 replicon that encodes a RLuc reporter), stable HCV lb RLuc replicon cells (harboring a dicistronic genotype 1b Conl replicon that encodes a RLuc reporter), or stable HCV 2a JFH-1 Rluc replicon cells (harboring a dicistronic genotype 2a JFH-1 replicon that encodes a RLuc reporter; with L31 present in NS5A) were dispensed into 384-well plates for EC50 assays. To perform the assay for genotype 2a (with M31 present in NS5A) or 2b, NS5A chimeric genotype 2a JFH-1 replicons that encodes a RLuc-Neo reporter and either genotype 2a J6 strain NS5A gene or genotype 2b MD2b-1 strain NS5A gene (both with M31 present) respectively, were either transiently transfected (t) into Huh-Lunet cells or were established as stably replicating replicon cells (s) is provided. Either cells were dispensed into 384-well plates for EC50 assays. To perform the assay for genotype 3 and 4, NS5A chimeric genotype 1b Conl replicons that encodes a Pi-RLuc reporter and either genotype 3a S52 strain NS5A gene or genotype 4a ED43 strain NS5A gene respectively, were transiently transfected (t) into Huh-Lunet cells, which were subsequently dispensed into 384-well plates. Compounds were dissolved in DMSO at a concentration of 10 mM and diluted in DMSO either manually or using an automated pipeting instrument. Serially 3-fold diluted compounds were either manually mixed with cell culture media and added to the seeded cells or directly added to the cells using an automated instrument. DMSO was used as a negative (solvent; no inhibition) control, and the protease inhibitor ITMN-191 was included at a concentration >100×EC50 as a positive control. 72 hours later, cells were lysed and Renilla luciferase activity quantified as recommended by the manufacturer (Promega-Madison, Wis.). Non-linear regression was performed to calculate EC50 values.
A general note: Replicon systems follow genome replication, usually without infectious particles.

The test system of test [2] is stable HCV 1b RLuc replicon cells (genotype 1b Con1 replicon). Put plainly: HCV genotype 1b RLuc replicon reporter assay. The format is cell-based. To be noted: Hepatitis C virus; stable genotype 1b Con1 RLuc replicon cells, 72 hours. As for the experimental part:
as §1

For test [3], the system named is NS5A chimeric genotype 2a JFH-1 replicon with genotype 2b MD2b-1 strain NS5A gene (M31). Briefly: HCV genotype 2b NS5A chimeric replicon assay, stable (s). The format is cell-based. Particulars: Hepatitis C virus, 72 h, read-out: 2b (s) (nM). The method, then:
as §1

The test system of test [4] is NS5A chimeric genotype 2a JFH-1 replicon with genotype 2a J6 strain NS5A gene (M31). Briefly: HCV genotype 2a J6 NS5A chimeric replicon assay, transient (t). It counts as cell-based. To be noted: Hepatitis C virus, 72 h, read-out: 2a J6 (t) (nM). As for the experimental part:
as §1

The test system of test [5] is NS5A chimeric genotype 1b Con1 replicon with genotype 3a S52 strain NS5A gene. Put plainly: HCV genotype 3a NS5A chimeric replicon assay. It counts as cell-based. To be noted: Hepatitis C virus, 72 h, read-out: 3a (nM). The method, then:
as §1

Test [6] relates to NS5A chimeric genotype 1b Con1 replicon with genotype 4a ED43 strain NS5A gene. Put plainly: HCV genotype 4a NS5A chimeric replicon assay. The format is cell-based. Particulars: Hepatitis C virus, 72 h, read-out: 4a (s) (nM). The method, then:
as §1, with “[…],” for “were transiently transfected (t) into Huh-Lunet cells,”

Test [7] relates to stable HCV 1a RLuc replicon cells (genotype 1a H77 replicon). Put plainly: HCV genotype 1a RLuc replicon reporter assay. To be noted: Hepatitis C virus; stable genotype 1a H77 RLuc replicon cells, 72 hours. The format is cell-based. The method, then:
as §1

The subject of test [8] is Y93N in genotype 1a NS5A replicon. Briefly: Resistance mutant replicon assay, genotype 1a NS5A Y93N. It counts as cell-based, HCV. Particulars: Hepatitis C virus, read-out: 1a Y93N (nM). As for the experimental part: as §1
(§2) To determine the antiviral potency (EC50) against resistance mutants, resistance mutations, including M28T, Q30R, Q30H, Q30E, L31M, Y93C, Y93H, and Y93N in genotype 1a NS5A, Y93H and L31V/Y93H in genotype 1b NS5A, and Y93H for in genotype 3a NS5A, were introduced individually into either 1a Pi-Rluc or 1b Pi-Rluc replicons by site directed mutagenesis. Replicon RNA of each resistant mutant was transiently transfected into Huh-7-derived cured-51 cells and antiviral potency was determined on these transfected cells as described above.

The test system of test [9] is Y93H in genotype 3a NS5A replicon. Briefly: Resistance mutant replicon assay, genotype 3a NS5A Y93H. It counts as cell-based, HCV. Particulars: Hepatitis C virus, read-out: 3a Y93H (nM). As for the experimental part: as §1, §2
Test [10] deals with Y93H in genotype 1a NS5A replicon. Put plainly: Resistance mutant replicon assay, genotype 1a NS5A Y93H. It counts as cell-based, HCV. To be noted: Hepatitis C virus, read-out: 1a Y93H (nM). As for the experimental part:
as §1, §2

For the compound `COC(=O)N[C@H](C(=O)N1[C@@H](C)CC[C@H]1c1nc2ccc3cc4c(cc3c2[nH]1)OCc1cc(-c2cnc([C@@H]3CC[C@H](C)N3C(=O)[C@H](NC(=O)OC)[C@H]3C[C@@H](C)O[C@@H](C)C3)[nH]2)ccc1-4)C(C)C` [Example AP, Methyl {(2S)-1-[(2S,5S)-2-(9-{2-[(2S,5S)-1-{(2R)-2-[(2R,6S)-2,6-dimethyltetrahydro-2H-pyran-4-yl]-2-[(methoxycarbonyl)amino]acetyl}-5-methylpyrrolidin-2-yl]-1H-imidazol-5-yl}-1,11-dihydroisochromeno[4′,3′:6,7]naphtho[1,2-d]imidazol-2-yl)-5-methylpyrrolidin-1-yl]-3-methyl-1-oxobutan-2-yl}carbamate], the EC50 in [1] came to 1.1 nM; in [2], 0.038 nM; in [3], 4.44 nM; in test [4] it was 4.44 nM; in test [5] it was 4.44 nM; in [6], 1.19 nM. This compound displayed an EC50 in test [7] of 1.52 nM.
Consider `COC(=O)N[C@H](C(=O)N1[C@@H](C)CC[C@H]1c1ncc(-c2ccc3c(c2)COc2cc4c(ccc5nc([C@@H]6CC[C@H](C)N6C(=O)[C@H](NC(=O)OC)C6C[C@@H](C)O[C@H](C)C6)[nH]c54)cc2-3)[nH]1)C(C)C` (stereo partly drawn) [Example AR, Methyl {(2S)-1-[(2S,5S)-2-(5-{2-[(2S,5S)-1-{(2R)-2-[(2R,6R)-2,6-dimethyltetrahydro-2H-pyran-4-yl]-2-[(methoxycarbonyl)amino]acetyl}-5-methylpyrrolidin-2-yl]-1,11-dihydroisochromeno[4′,3′:6,7]naphtho[1,2-d]imidazol-9-yl}-1H-imidazol-2-yl)-5-methylpyrrolidin-1-yl]-3-methyl-1-oxobutan-2-yl}carbamate], for which the EC50 is 2.11 nM in test [1]; 0.09 nM in [2]; 15.8 nM in test [3]; 5.14 nM in [4]; 8.3 nM in [5]; 4.19 nM in [6]. Moreover, the EC50 in test [7] is 8.98 nM.
Take `COC(=O)N[C@H](C(=O)N1[C@H](c2ncc(-c3ccc4c(c3)COc3cc5c(ccc6nc([C@@H]7C[C@H](C)[C@H](C)N7C(=O)[C@@H](NC(=O)OC)C7C[C@@H](C)O[C@H](C)C7)[nH]c65)cc3-4)[nH]2)C[C@H](C)[C@@H]1C)C1C[C@@H](C)O[C@H](C)C1` (stereo partly drawn) [Example AZ, Methyl {(1S)-1-[(2R,6R)-2,6-dimethyltetrahydro-2H-pyran-4-yl]-2-[(2S ,3S,5S)-5-(5-{2-[(2S,4S,5S)-1-{(2S)-2-[(2R,6R)-2,6-dimethyltetrahydro-2H-pyran-4-yl]-2-[(methoxycarbonyl)amino]acetyl}-4,5-dimethylpyrrolidin-2-yl]-1,11-dihydroisochromeno[4′,3′:6,7]naphtho[1,2-d]imidazol-9-yl}-1H-imidazol-2-yl)-2,3-dimethylpyrrolidin-1-yl]-2-oxoethyl}carbamate]: the EC50 amounted to 0.01 nM in [1]; 0.031 nM in [2]; 0.024 nM in test [3]; 0.025 nM in [5]; 0.013 nM in [6]; 0.059 nM in test [8]. Moreover, the EC50 in test [9] amounted to 4.52 nM; in test [7], 0.021 nM; in [10], 0.025 nM.
For `COC(=O)N[C@H](C(=O)N1[C@@H](c2nc3ccc4cc5c(cc4c3[nH]2)OCc2cc(-c3cnc([C@@H]4C[C@H](C)[C@H](C)N4C(=O)[C@@H](NC(=O)OC)C4C[C@@H](C)O[C@H](C)C4)[nH]3)ccc2-5)C[C@@H](C)[C@H]1C)C1C[C@@H](C)O[C@H](C)C1` (stereo partly drawn) [Example BA, Methyl {(1S)-1-[(2R,6R)-2,6-dimethyltetrahydro-2H-pyran-4-yl]-2-[(2R,3R,5R)-5-(9-{2-[(2S,4S,5S)-1-{(2S)-2-[(2R,6R)-2,6-dimethyltetrahydro-2H-pyran-4-yl]-2-[(methoxycarbonyl)amino]acetyl}-4,5-dimethylpyrrolidin-2-yl]-1H-imidazol-5-yl}-1,11-dihydroisochromeno[4′,3′:6,7]naphtho[1,2-d]imidazol-2-yl)-2,3-dimethylpyrrolidin-1-yl]-2-oxoethyl}carbamate], the EC50 in test [1] stood at 0.086 nM; in test [2], 0.061 nM; in test [3], 0.202 nM; in [5], 0.231 nM; in test [6], 0.108 nM; in test [8] it was 0.496 nM. In addition, the EC50 came out at 40.6 nM in test [9], 0.169 nM in [7] and 0.359 nM in test [10].
For the compound `COC(=O)N[C@H](C(=O)N1[C@@H](c2ncc(-c3ccc4c(c3)COc3cc5c(ccc6nc([C@@H]7C[C@H](C)[C@H](C)N7C(=O)[C@@H](NC(=O)OC)C7C[C@@H](C)O[C@H](C)C7)[nH]c65)cc3-4)[nH]2)C[C@@H](C)[C@H]1C)C1C[C@@H](C)O[C@H](C)C1` (stereo partly drawn) [Example BB, Methyl {(1S)-1-[(2R,6R)-2,6-dimethyltetrahydro-2H-pyran-4-yl]-2-[(2R,3R,5R)-5-(5-{2-[(2S,4S,5S)-1-{(2S)-2-[(2R,6R)-2,6-dimethyltetrahydro-2H-pyran-4-yl]-2-[(methoxycarbonyl)amino]acetyl}-4,5-dimethylpyrrolidin-2-yl]-1,11-dihydroisochromeno[4′,3′:6,7]naphtho[1,2-d]imidazol-9-yl}-1H-imidazol-2-yl)-2,3-dimethylpyrrolidin-1-yl]-2-oxoethyl}carbamate], the EC50 in test [1] was determined as 2.96 nM; in [2] it was 0.205 nM; in test [3], 10.6 nM; in [5] it was 10.3 nM; in [6], 2.54 nM; in [8], 29.6 nM. Also, the EC50 in test [7] was 3.85 nM; in test [10], 20.2 nM.
